# Legend:
# wild oat = test: Test B postemergence herbicide test; type: in vivo, Avena fatua; settings: postemergence, visual rating, scale 0 (no effect) to 100 (complete control)
# Method in brief: (§1)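 Plants grow to 1- to 4-leaf stage (2–18 cm) for postemergence spraying, or to 2-leaf stage for the paddy test. Formulated compound is applied. Greenhouse holding lasts 13–15 days. Response is scored visually relative to controls, 0 no effect to 100 complete control; a dash means no result.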
# barnyardgrass [1] = test: Test A pre-/postemergence herbicide test; type: in vivo, Echinochloa crus-galli
# Method in brief: (§2)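 Plants are held in greenhouse about ten days after treatment, then compared with untreated controls and scored 0 (no effect) to 100 (complete control). Preemergence dosing is a directed soil spray on sown sandy loam; postemergence dosing is spray to runoff at 2–10 cm height.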
# velvetleaf [2] = test: Test A pre-/postemergence herbicide test; type: in vivo, Abutilon theophrasti
# Method in brief: as §2
# giant foxtail [3] = test: Test B pre-/postemergence herbicide test; type: in vivo, Setaria faberi; settings: for Foxtail, Giant plant response rating: postemergence, scale 0 (no effect) to 100 (complete control)
# Method in brief: (§3)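 Visual rating, 0 (no effect) to 100 (complete control), versus untreated controls after 13–15 d in greenhouse. Pre- and postemergence applications (postemergence plants 2–18 cm, 1–4 leaves); flooded paddy arm at 2-leaf stage. Compounds in non-phytotoxic solvent plus surfactant.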
# wheat = test: Test B postemergence herbicide test; type: in vivo, Triticum aestivum; set-up: key to Wheat plant response rating: 0 = no effect, 100 = complete control; settings: postemergence, visual rating, scale 0 (no effect) to 100 (complete control)
# Method in brief: as §1
# blackgrass = test: Test B postemergence herbicide test; type: in vivo, Alopecurus myosuroides; settings: postemergence, visual rating, scale 0 (no effect) to 100 (complete control)
# Method in brief: (§4)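 Visual control ratings, 0–100 versus untreated controls, taken after 13 to 15 days in the greenhouse. Blackgrass received a postemergence spray at the 1- to 4-leaf stage (2–18 cm); ducksalad, umbrella sedge and barnyardgrass were flooded-paddy treated at 2 leaves.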
# lambsquarters = test: Test B pre-/postemergence herbicide test; type: in vivo, Chenopodium album; settings: for Lambsquarters plant response rating: postemergence, scale 0 (no effect) to 100 (complete control)
# Method in brief: as §3
# large crabgrass [4] = test: Test A pre-/postemergence herbicide test; type: in vivo, Digitaria sanguinalis
# Method in brief: as §2
# morningglory [5] = test: Test A pre-/postemergence herbicide test; type: in vivo, Ipomoea spp.
# Method in brief: as §2
# redroot pigweed = test: Test A pre-/postemergence herbicide test; type: in vivo, Amaranthus retroflexus
# Method in brief: as §2
# rice [6] = test: Test B flooded paddy test; type: in vivo, Oryza sativa; settings: 1000 g ai/ha, visual rating, scale 0 to 100 (0 no effect, 100 complete control), 13 to 15 days
# Method in brief: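 Read-out: visual comparison with controls, scored 0 to 100, where 100 means complete control and 0 no effect. Formulated chemicals were applied postemergence to plants 2–18 cm tall (1- to 4-leaf), or to flooded-paddy plants at the 2-leaf stage, then held 13 to 15 days under glass.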
# barnyardgrass [7] = test: Test B pre-/postemergence herbicide test; type: in vivo, Echinochloa crus-galli; settings: for Barnyardgrass plant response rating: postemergence, scale 0 (no effect) to 100 (complete control)
# Method in brief: (§5)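 Response was scored visually 13 to 15 days after treatment against untreated greenhouse controls, 0 meaning no effect and 100 complete control. Formulations (solvent mixture plus surfactant) went onto soil after planting, onto foliage of 1- to 4-leaf plants, and onto 2-leaf plants in a flooded paddy set including rice and barnyardgrass.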
# giant foxtail [8] = test: Test A pre-/postemergence herbicide test; type: in vivo, Setaria faberi
# Method in brief: as §2
# morningglory [9] = test: Test B pre-/postemergence herbicide test; type: in vivo, Ipomoea coccinea; settings: for Morningglory plant response rating: postemergence, scale 0 (no effect) to 100 (complete control)
# Method in brief: as §5
# [10] = tested on: small flower umbrella sedge; test: Test B flooded paddy test; type: in vivo, Cyperus difformis; settings: 1000 g ai/ha, visual rating, scale 0 to 100 (0 no effect, 100 complete control), 13 to 15 days
# Method in brief: as §4
# corn = test: Test B pre-/postemergence herbicide test; type: in vivo, Zea mays; settings: for Corn plant response rating: postemergence, scale 0 (no effect) to 100 (complete control)
# Method in brief: as §3
# pigweed = test: Test B pre-/postemergence herbicide test; type: in vivo, Amaranthus retroflexus; settings: for Pigweed plant response rating: postemergence, scale 0 (no effect) to 100 (complete control)
# Method in brief: as §3
# velvetleaf [11] = test: Test B pre-/postemergence herbicide test; type: in vivo, Abutilon theophrasti; settings: for Velvetleaf plant response rating: postemergence, scale 0 (no effect) to 100 (complete control)
# Method in brief: as §3
# large crabgrass [12] = test: Test B pre-/postemergence herbicide test; type: in vivo, Digitaria sanguinalis; settings: for Crabgrass, Large plant response rating: postemergence, scale 0 (no effect) to 100 (complete control)
# Method in brief: as §3
# ducksalad = test: Test B flooded paddy test; type: in vivo, Heteranthera limosa; settings: 1000 g ai/ha, visual rating, scale 0 to 100 (0 no effect, 100 complete control), 13 to 15 days
# Method in brief: as §4
# Surinam grass = test: Test B pre-/postemergence herbicide test; type: in vivo, Urochloa decumbens; settings: for Surinam Grass plant response rating: postemergence, scale 0 (no effect) to 100 (complete control)
# Method in brief: as §3
# barnyardgrass [13] = test: Test B flooded paddy test; type: in vivo, Echinochloa crus-galli; settings: 1000 g ai/ha, visual rating, scale 0 to 100 (0 no effect, 100 complete control), 13 to 15 days
# Method in brief: as §4
# rice [14] = test: Test B pre-/postemergence herbicide test; type: in vivo, Oryza sativa; settings: 0 = no effect, 100 = complete control, preemergence
# Method in brief: as §3
# cocklebur = test: Test B pre-/postemergence herbicide test; type: in vivo, Xanthium strumarium; settings: for Cocklebur plant response rating: postemergence, scale 0 (no effect) to 100 (complete control)
# Method in brief: as §5
# [15] = Postemergence, 500 g ai/ha, 0 to 100 scale, 0 no effect, 100 complete control
# [16] = Postemergence, 2000 g ai/ha, 0 to 100 scale, 0 no effect, 100 complete control
# [17] = Preemergence, 2000 g ai/ha, visual rating, 0 to 100 scale (0 no effect, 100 complete control)
# [18] = preemergence, 500 g ai/ha, visual injury, 0 to 100 scale (0 no effect, 100 complete control)
# [19] = 125 g ai/ha, 0 = no effect, 100 = complete control, preemergence
# [20] = 500 g ai/ha, visual rating, 0 = no effect, 100 = complete control, preemergence
smiles,measurement,setting,value
CCc1nc(C(C)(C)C)sc1C(=O)Nc1cccc(C(=O)N(CC)CC)n1 [Compound 214],"Oat, Wild plant response rating",wild oat; 125 g ai/ha,0
same,"Oat, Wild plant response rating",wild oat; 500 g ai/ha,0
same,Barnyardgrass plant response rating,barnyardgrass [1]; [15],0
same,"Plant response rating, Barnyardgrass",barnyardgrass [1]; [16],15
same,Barnyardgrass plant response rating,barnyardgrass [1]; [17],30
same,Barnyardgrass plant response rating,barnyardgrass [1]; [18],0
same,Velvetleaf plant response rating,velvetleaf [2]; [15],15
same,"Plant response rating, Velvetleaf",velvetleaf [2]; [16],20
same,Velvetleaf plant response rating,velvetleaf [2]; [17],20
same,Velvetleaf plant response rating,velvetleaf [2]; [18],5
same,"Foxtail, Giant plant response rating (0 to 100 scale)",giant foxtail [3]; [19],0
same,"Plant response rating, Foxtail, Giant",giant foxtail [3]; [20],90
same,"Foxtail, Giant plant response rating","giant foxtail [3]; 125 g ai/ha, visual rating",0
same,"Foxtail, Giant plant response rating","giant foxtail [3]; 500 g ai/ha, visual rating",20
same,Wheat plant response rating,wheat; 125 g ai/ha,0
same,Wheat plant response rating,wheat; 500 g ai/ha,0
same,Blackgrass plant response rating,blackgrass; 125 g ai/ha,0
same,Blackgrass plant response rating,blackgrass; 500 g ai/ha,0
same,Lambsquarters plant response rating (0 to 100 scale),lambsquarters; [19],0
same,"Plant response rating, Lambsquarters",lambsquarters; [20],80
same,Lambsquarters plant response rating,"lambsquarters; 125 g ai/ha, visual rating",0
same,Lambsquarters plant response rating,"lambsquarters; 500 g ai/ha, visual rating",0
same,"Crabgrass, Large plant response rating",large crabgrass [4]; [15],5
same,"Plant response rating, Crabgrass, Large",large crabgrass [4]; [16],10
same,"Crabgrass, Large plant response rating",large crabgrass [4]; [17],65
same,"Crabgrass, Large plant response rating",large crabgrass [4]; [18],55
same,Morningglory plant response rating,morningglory [5]; [15],0
same,"Plant response rating, Morningglory",morningglory [5]; [16],10
same,Morningglory plant response rating,morningglory [5]; [17],30
same,Morningglory plant response rating,morningglory [5]; [18],5
same,Pigweed plant response rating,redroot pigweed; [15],20
same,"Plant response rating, Pigweed",redroot pigweed; [16],50
same,Pigweed plant response rating,redroot pigweed; [17],95
same,Pigweed plant response rating,redroot pigweed; [18],20
same,Rice plant response rating,rice [6],0
same,Barnyardgrass plant response rating (0 to 100 scale),barnyardgrass [7]; [19],0
same,"Plant response rating, Barnyardgrass",barnyardgrass [7]; [20],20
same,Barnyardgrass plant response rating,"barnyardgrass [7]; 125 g ai/ha, visual rating",0
same,Barnyardgrass plant response rating,"barnyardgrass [7]; 500 g ai/ha, visual rating",0
same,"Foxtail, Giant plant response rating",giant foxtail [8]; [15],15
same,"Plant response rating, Foxtail, Giant",giant foxtail [8]; [16],40
same,"Foxtail, Giant plant response rating",giant foxtail [8]; [17],55
same,"Foxtail, Giant plant response rating",giant foxtail [8]; [18],60
same,Morningglory plant response rating (0 to 100 scale),morningglory [9]; [19],0
same,"Plant response rating, Morningglory",morningglory [9]; [20],0
same,Morningglory plant response rating,"morningglory [9]; 125 g ai/ha, visual rating",0
same,Morningglory plant response rating,"morningglory [9]; 500 g ai/ha, visual rating",0
same,"Sedge, Umbrella plant response rating",[10],50
same,Corn plant response rating (0 to 100 scale),corn; [19],0
same,"Plant response rating, Corn",corn; [20],0
same,Corn plant response rating,"corn; 125 g ai/ha, visual rating",0
same,Corn plant response rating,"corn; 500 g ai/ha, visual rating",20
same,Pigweed plant response rating (0 to 100 scale),pigweed; [19],0
same,"Plant response rating, Pigweed",pigweed; [20],100
same,Pigweed plant response rating,"pigweed; 125 g ai/ha, visual rating",0
same,Pigweed plant response rating,"pigweed; 500 g ai/ha, visual rating",0
same,Velvetleaf plant response rating (0 to 100 scale),velvetleaf [11]; [19],0
same,"Plant response rating, Velvetleaf",velvetleaf [11]; [20],0
same,Velvetleaf plant response rating,"velvetleaf [11]; 125 g ai/ha, visual rating",0
same,Velvetleaf plant response rating,"velvetleaf [11]; 500 g ai/ha, visual rating",10
same,"Crabgrass, Large plant response rating (0 to 100 scale)",large crabgrass [12]; [19],0
same,"Plant response rating, Crabgrass, Large",large crabgrass [12]; [20],70
same,"Crabgrass, Large plant response rating","large crabgrass [12]; 125 g ai/ha, visual rating",0
same,"Crabgrass, Large plant response rating","large crabgrass [12]; 500 g ai/ha, visual rating",0
same,Ducksalad plant response rating,ducksalad,30
same,Surinam Grass plant response rating (0 to 100 scale),Surinam grass; [19],0
same,"Plant response rating, Surinam Grass",Surinam grass; [20],30
same,Surinam Grass plant response rating,"Surinam grass; 125 g ai/ha, visual rating",0
same,Surinam Grass plant response rating,"Surinam grass; 500 g ai/ha, visual rating",10
same,Barnyardgrass plant response rating,barnyardgrass [13],0
same,Rice plant response rating (0 to 100 scale),rice [14]; 125 g ai/ha,0
same,"Plant response rating, Rice","rice [14]; 500 g ai/ha, visual rating",0
same,Cocklebur plant response rating (0 to 100 scale),cocklebur; [19],0
same,"Plant response rating, Cocklebur",cocklebur; [20],0
same,Cocklebur plant response rating,"cocklebur; 125 g ai/ha, visual rating",0
same,Cocklebur plant response rating,"cocklebur; 500 g ai/ha, visual rating",0
